{"source": "patent US20160270390A1", "about": "“POLYMERIC FILM FOR AG[…] STORAGE, […] THEREFROM AND RELATED METHODS OF AG[…] STORAGE” (priority 2012, published 2016)", "origin": "cited, not measured here", "system": "insect pests", "details": "Zimbabwe, grain damage of 92% reported due to insect pests"}
{"compound": "CCOC(=O)CC(SP(=S)(OC)OC)C(=O)OCC", "note": "(stereo not shown) [malthion]", "values": [{"measurement": "reduction of grain damage in stored maize", "value": 10, "unit": "%"}]}
